Measured values as given in BindingDB's records for doi:10.1021/ml200206z (2011).

Molecular target: T1, 5-hydroxytryptamine receptor 2C (Homo sapiens, UniProt P28335)
T1 sequence (P28335 whole entry): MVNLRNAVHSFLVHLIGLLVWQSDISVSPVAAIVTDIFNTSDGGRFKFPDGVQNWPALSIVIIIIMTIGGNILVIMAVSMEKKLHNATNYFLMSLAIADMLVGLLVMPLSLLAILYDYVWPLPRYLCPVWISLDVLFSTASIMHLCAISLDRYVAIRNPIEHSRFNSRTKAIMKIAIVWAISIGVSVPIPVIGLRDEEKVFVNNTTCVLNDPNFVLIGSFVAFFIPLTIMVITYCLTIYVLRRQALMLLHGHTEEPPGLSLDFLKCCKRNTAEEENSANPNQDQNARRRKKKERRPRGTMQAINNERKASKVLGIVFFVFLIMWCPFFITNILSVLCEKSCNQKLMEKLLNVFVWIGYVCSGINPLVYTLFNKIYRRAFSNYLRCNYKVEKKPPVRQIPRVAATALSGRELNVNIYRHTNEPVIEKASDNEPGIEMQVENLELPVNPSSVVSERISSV
Experiment: Agonist activity at human 5HT2C receptor expressed in HEK293 cells assessed as calcium flux measured every sec for 3 mins by FLIPR assay

With `NC[C@H]1C[C@@H]1c1ccccc1OCC1CC1` the EC50 was 0.12 µM.
